Source: patent US4966962A, “Reverse analogue of actinomycin D” (Trustees of Boston University, priority 1988, dated 1990)

Key:
[1] = test system: supercoiled closed-circular pBR322 DNA; experiment: Cleavage of closed circular pBR322 DNA; format: biochemical; conditions: 20° C., 1 h, Na2S2O4, FeCl2
Procedure: The cleavage of DNA was followed by monitoring of the conversion of supercoiled closed-circular pBR322 DNA to open-circular DNA (analyzed by agarose gel electrophoresis and quantitated by staining with 0.5 ug/mL of ethidium bromide for 30 min and densitometry; (Table II). SAD and RAD show strong DNA-cleaving ability in the presence of sodium hydrosulfite and ferrous chloride. Presumably, sodium hydrosulfite acts as a reducing agent and regenerates Fe(II) from Fe(III) to produce a continuous source of the active metal ion. When the DNA-cleaving reaction with the analogues was performed at 20° C., the ratio of cleaved DNA (open circular form DNA versus closed circular DNA) was almost maximum within 1 h. […] Cleavage of DNA by the analogues is aided by the actinomycin chromopeptide moiety, which acts as a site-specific binder to DNA, and is effected by the aminoquinone function which is chelated to the ferrous ion during the process, and this is the likely candidate which generates the radical species.
Plasmid DNA pBR322 (0.5 ug) was dissolved in /8 μL of a reaction buffer (5 mM […], 10 mM Tris-HCl). To this solution, 1 μL of the 10 mM aqueous solution of the agent containing 1 mM FeCl2 was added. The mixture was incubated for 0.5-2 h at 20° or 37° C. Then, the incubation mixture was mixed with 10 uL of sample loading buffer (50% glycerin in 2 X Boyer's buffer containing 0.01% bromophenol blue). Finally, 5 uL of the mixture was analyzed by 0.7% agarose gel electrophoresis (120 V, Boyer's buffer; the migration distance of bromophenol blue was 5.0 cm). The gel was stained with […] of ethidium bromide and then quantitated by densitometry.
^a Ten microliters of 200 u M pBR322 DNA nucelotides in UM 10 mM
TrisHCl (pH 7.8) and 50 mM NaCl, containing 4 mM Na2 --S2
O4 and 100 μM FeCl2, was incubated with drug concentration a
20° C. for 1 h; the reaction mixture was kept saturated with air
throughout the incubation period.
^b Percentage of DNA was calculated from the amounts of openand
closedcir- cular DNA in the incubation mixture.

colon 38 adenocarcinoma = experiment: Activity against advanced colon carcinoma C38 tumor; format: in vivo, CDF1 mice; conditions: for % inhibn of tumor: tumors measured day 21
Procedure: In view of favorable activity agianst colon 26 carcinoma, further experiments using the active analogues were carried out on the advanced colon adenocarcinomas of mouse colon 38. […] The superiority of RAD III and SAD over AMD in inhibiting colon 38 carcinoma is evident from the data of both tumor weight inhibition and increases in survival time of the treated over nontreated mice and the larger number of long-term survivors produced by these analogues.
^a CDF1 mice were injected sc with colon 38 adenocarcinoma
fragments (70 mg) and treated with drugs with iv injections on day 1, 5,
and 9 following tumor imoplantation on day 0. ^b [100 (tumor weight o
treated mice/tumor weight of untreated mice)] × 100; data pooled
from two experiments, tumors measured on day 21 after implantation ^c
(Median survival time of treated mice/median survival of untreated mice)
× 100; in parenthesis, number of over 100 day survivors/number of […]

mammary MX-1 = experiment: Treatment of mammary MX-1 tumor; format: in vivo; conditions: at the doses tested
P388 Leukemia = experiment: Minimum effective dose in P388 tumor bearing mice; format: in vivo
Text: ^a Drugs administered ip once on days 1, 5, and 9 starting 1 day afte
tumor implantation. Determinations were made from analysis of plotted
logdose response data. ^b MED (minimum effective dose) is the dose
(milligram/killogram) providing an increase in life span of 45% over

lung LX-1 = experiment: Treatment of lung LX-1 tumor; format: in vivo; conditions: at the doses tested
[2] = Metabolism in tumor cell homogenate (T); format: in vitro ADME, murine; conditions: P388 homogenate (T), 37° C., 16 h
Procedure: In this respect, actinomycin is only about 30% as efficient as its synthetic analogues, RAD III (3c) and SAD (2) (Table II). Metabolic Studies, Metabolism in the Presence of Tumor Cell Homogenates and Rat Liver Microsomes. The cell homogenates (P388 cells were sonicated and were incubated at 37° C. with analogues for 16 h. Rat microsomes were harvested from phenobarbital-induced rats by standard procedure. Incubations were carried out for 6 h in the presence of a NADPH-generating system, i.e., glucose-6-phosphate dehydrogenase and glucose 6-phosphate. The metabolites and their water-soluble conjugates were isolated and identified with the use of tritiated analogues.
It was observed that the RAD analogues are metabolized to SAD (2) with the loss of oxazole ring. […] In tumor cells, a larger fraction of SAD (2) (30-50%) remains unmetabolized. SAD is found to form glucuronide and sulfate conjugates only in tumor cells. […] Isolation of SAD from RAD analogues is a very important step, because SAD is found to be a potent and effective antitumor agent in several murine tumor systems (Tables V-XII).

[3] = test system: human colon carcinoma HT-29 cell line; experiment: Cell viability by soft agar cloning; format: cell-based; conditions: 2 h treatment at 37° C., from plot of concentration vs colony formation
Procedure: Furthermore, the activity of the analogues against a human colon carcinoma HT-29 cell line in culture was evaluated. After the cells were treated for 2 h with 0.01-10.0 uM of the drugs at 37° C., the cells were washed with ice-cold PBS (phosphate buffered saline), and the cell viability was assessed by soft agar cloning. Cells viability was expressed as the percentage of colonies from the drug-treated cells relative to control cells after correcting for the cloning efficiency, which ranged from 60% to 80%.

B16 melanoma = experiment: In vivo antitumor activity against B16 melanoma; parameters: species or system BDF1 mice
Procedure: ^a 0.2 mL of 1:5 (weight/volume) brei of B16 melanoma implanted
ip on day 0 in groups of nine BDF1 mice. Drugs administered ip^b
MST (range), median survival time in days (range of days for death of
individual animal). ^c % ILS (surv), percent increase in life span
(survivors on day 65/total injected).

[4] = dose 0.30 mg/kg iv days 1, 5, 9
[5] = dose 0.60 mg/kg iv days 1, 5, 9
[6] = dose 1.20 mg/kg iv days 1, 5, 9
[7] = at optimal dose, ip days 1, 5, 9

## Cc1c2oc3c(C)c(O)c(N)c(C(=O)N[C@@H]4C(=O)N[C@H](C(C)C)C(=O)N5CCC[C@H]5C(=O)N(C)CC(=O)N(C)[C@@H](C(C)C)C(=O)O[C@@H]4C)c3nc-2c(C(=O)N[C@@H]2C(=O)N[C@H](C(C)C)C(=O)N3CCC[C@H]3C(=O)N(C)CC(=O)N(C)[C@@H](C(C)C)C(=O)O[C@@H]2C)c(N)c1=O [SAD (2)]
[1]
  Percentage of closed circular pBR322 DNA cleaved: 35%
[1]; concn 25 M (so in the source)
  Percentage of closed circular pBR322 DNA cleaved: 50%
[1]; concn 50 M (so in the source)
  Percentage of closed circular pBR322 DNA cleaved: 50%
[1]; concn 100 M (so in the source)
  Percentage of closed circular pBR322 DNA cleaved: 65%
Colon 38 adenocarcinoma; [4]
  % T/C (median survival time): 278%
  over 100 day survivors/number of mice: 5/9
  % inhibn of tumor: 95%
Colon 38 adenocarcinoma; [5]
  % T/C (median survival time): 278%
  over 100 day survivors/number of mice: 6/9
  % inhibn of tumor: 97%
Colon 38 adenocarcinoma; [6]
  % T/C (median survival time): 211%
  over 100 day survivors/number of mice: 2/9
  % inhibn of tumor: 99%
Colon 38 adenocarcinoma; every 4 days, three times, from day 1 after implant
  activity relative to AMD at equivalent doses: about 150%
Mammary MX-1
  response of mammary MX-1 to treatment: practically ineffective
P388 Leukemia; MTD in normal BDF1 mice / MED in P388 tumor bearing mice
  therapeutic index MTD/MED: 96
P388 Leukemia; ip once on days 1, 5, and 9, from plotted log-dose response data
  MED (minimum effective dose), dose giving 45% increase in life span over control: 0.025 milligram/killogram
Lung LX-1
  response of lung LX-1 to treatment: practically ineffective
[2]
  percent isolated: tissue bound: 7.5 ± 1.0%
  percent isolated: unidentified metabolite: 10.0 ± 1.0%
  percent metabolite isolated: SAD-glucuronide and/or sulfate: 47.0 ± 6.5%
  percent metabolite isolated: protein conjugates: 5.5 ± 1.5%
  percent unconverted drug: 30-50%
[2]; listed as SAD(2)
  percent unconverted drug: 30.0 ± 3.0%
[3]
  LD90, drug concentration producing 90% reduction in cell viability: 0.1 µM
B16 melanoma; [7]
  % ILS: 96%
  survivors on day 65/total injected: 4/9
B16 melanoma; at optimal dose, ip days 1, 5, 9, range of days of death
  MST (range), median survival time: 57(33-61) days
B16 melanoma; ip, days 1, 5, 9
  optimal dose: 300 μg/kg per inj
